Source: ChEMBL document CHEMBL3853313, “Iminoguanidines as Allosteric Inhibitors of the Iron-Regulated Heme Oxygenase (HemO) of Pseudomonas aeruginosa” (J Med Chem, 2016)
The source made the active and inactive calls. No cut-off for these calls is given here.

Assays:
[1] = test system: Pseudomonas aeruginosa; test: Antibacterial activity against Pseudomonas aeruginosa JSRI-1 clinical isolate after 12 hrs; format: functional; details: JSRI-1, 12 h
[2] = test system: Pseudomonas aeruginosa; test: Bactericidal activity against Pseudomonas aeruginosa PAO1 after 12 hrs; format: functional; details: PAO1, 12 h
[3] = test system: Pseudomonas aeruginosa; test: Bactericidal activity against Pseudomonas aeruginosa JSRI-1 clinical isolate after 12 hrs; format: functional; details: JSRI-1, 12 h
[4] = test system: Pseudomonas aeruginosa; test: Antibacterial activity against Pseudomonas aeruginosa PAO1 after 12 hrs; format: functional; details: PAO1, 12 h
[5] = test system: Pseudomonas aeruginosa; test: Bactericidal activity against Pseudomonas aeruginosa JSRI-2 clinical isolate after 12 hrs; format: functional; details: JSRI-2, 12 h
[6] = test system: Pseudomonas aeruginosa; test: Antibacterial activity against Pseudomonas aeruginosa JSRI-2 clinical isolate after 12 hrs; format: functional; details: JSRI-2, 12 h
[7] = Inhibition of Pseudomonas aeruginosa HemO mutant expressed in Escherichia coli BL21(DE3) assessed as decrease in biliverdin-9alpha-dependent IFP1.4 fluorescence after 16 hrs by spectrophotometric method
[8] = target: T1, Heme oxygenase (Pseudomonas aeruginosa, UniProt O69002); test: Binding affinity to Pseudomonas aeruginosa HemO by intrinsic fluorescence quenching method
T1 sequence (O69002 whole entry): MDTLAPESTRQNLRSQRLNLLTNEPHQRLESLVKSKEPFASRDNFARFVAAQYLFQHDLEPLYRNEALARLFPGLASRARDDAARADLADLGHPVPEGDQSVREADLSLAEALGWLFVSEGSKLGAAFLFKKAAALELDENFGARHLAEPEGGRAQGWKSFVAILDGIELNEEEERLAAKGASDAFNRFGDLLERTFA

[9] = target: T2, Heme oxygenase (Pseudomonas aeruginosa) (UniProt O69002); test: Binding affinity to Pseudomonas aeruginosa HemO by STD NMR method
T2 sequence (whole entry): T1 sequence (O69002 whole entry)

[10] = test system: Escherichia coli; test: Toxicity in Escherichia coli BL21(DE3) expressing Pseudomonas aeruginosa HemO mutant after 16 hrs by phase contrast microscopy
[11] = target: T2, Heme oxygenase (Pseudomonas aeruginosa); test: Binding affinity to Pseudomonas aeruginosa holo-HemO (53 to 62 residues) at 30 mins by HXMS method

| Compound | MIC50 [1] [µg/mL] | MBC [2] [µg/mL] | MBC [3] [µg/mL] | MIC50 [4] [µg/mL] | MBC [5] [µg/mL] | MIC50 [6] [µg/mL] | EC50 [7] [µM] | Kd [8] [µM] | Activity [9] | Activity [10] | Activity [11] |
| --- | --- | --- | --- | --- | --- | --- | --- | --- | --- | --- | --- |
| COc1cccc(/C=N/N=C(N)N)c1.Cl | 48.6 | > 1000 | 1000 | 134 | 500 | 93.4 | – | – | – | – | – |
| COc1ccc(/C=N/NC(=N)N)cc1.Cl | 30.5 | 500 | 1000 | 113 | 500 | 38 | 77.4 | 7.8 | – | – | – |
| Cl.NC(N)=N/N=C/c1cccc(F)c1 | 70 | 1000 | 1000 | 66.6 | 250 | 68.2 | 45.1 | 12 | – | – | – |
| Cl.NC(N)=N/N=C/c1ccccc1Br | 62.9 | 500 | 500 | 50.1 | 250 | 33.4 | 35.3 | – | Active | – | – |
| Cl.NC(N)=N/N=C/c1cccc(OCc2ccccc2)c1 | 25.5 | 125 | 125 | 23.2 | 62.5 | 33.9 | 34.3 | – | – | – | – |
| Cl.NC(N)=N/N=C/c1cccc(O)c1 | 391 | – | – | 750 | – | 617 | > 200 | 21 | – | – | – |
| Cl.NC(N)=N/N=C/c1cc(O)cc(O)c1 | 338 | – | – | 1140 | – | 564 | > 200 | 8 | – | – | – |
| N=C(N)N/N=C/c1cccc(OCc2ccccc2)c1 | – | – | – | – | – | – | – | – | Active | – | – |
| Cl.N=C(N)N/N=C/c1cccc2ccccc12 | 30.4 | 250 | 250 | 32.1 | 125 | 36.1 | 52.4 | 12 | – | – | – |
| N=C(N)N/N=C/c1ccccc1Br | – | – | – | – | – | – | – | 6.7 | – | – | – |
| COc1ccccc1/C=N/NC(=N)N.Cl | 38.4 | 1000 | > 1000 | 99.5 | 500 | 125 | 72.7 | – | Active | – | – |
| Cl.N=C(N)N/N=C/c1ccc2ccccc2c1 | 31.7 | 250 | 250 | 48.4 | 125 | 75.6 | 43.1 | – | – | – | – |
| CC(C)c1ccc(/C=N/NC(=N)N)cc1.Cl | 20.6 | 125 | 125 | 52.3 | 125 | 81 | 11.3 | 5.7 | – | – | – |
| Cl.N=C(N)N/N=C/c1ccc(Br)cc1 | 19.7 | 250 | 250 | 52.5 | 62.5 | 13.4 | 35.6 | 15 | – | – | – |
| Cl.N=C(N)N/N=C/c1ccc([N+](=O)[O-])cc1 | 61.4 | 1000 | 1000 | 72.8 | 125 | 47.2 | 64.4 | 6.2 | – | – | – |
| Cl.N=C(N)N/N=C/c1ccccc1O | 58.5 | > 1000 | > 1000 | 123 | 250 | 79.1 | 102 | 9.2 | Active | – | – |
| Cl.N=C(N)N/N=C/c1cccc(Cl)c1 | 19.2 | 250 | 500 | 52.4 | 250 | 33.5 | 19.4 | 8.4 | – | – | – |
| Cl.N=C(N)N/N=C/c1ccccc1F | 28.6 | 1000 | > 1000 | 131 | 250 | 72.9 | > 200 | 11 | – | – | – |
| CN(C)c1ccc(/C=N/NC(=N)N)cc1.Cl | 32.5 | 1000 | 1000 | 121 | 250 | 15.5 | 123 | 8.8 | – | Non-Toxic | – |
| Cl.N=C(N)N/N=C/c1ccc(Cl)cc1 | 10.7 | 500 | 250 | 49 | 62.5 | 41.6 | 122 | 7 | – | – | – |
| Cl.NC(N)=N/N=C/c1ccc(O)cc1 | 443 | > 1000 | > 1000 | 408 | > 1000 | 121 | > 200 | 4.8 | – | – | – |
| Cl.NC(N)=N/N=C/c1cccc(Br)c1 | 23 | 250 | 500 | 51.3 | 125 | 19.4 | 11.2 | 12 | – | – | – |
| Cl.NC(N)=N/N=C/c1ccc(Cl)c(Cl)c1 | 24.1 | 125 | 125 | 32.3 | 125 | 16.4 | 20.3 | 8.4 | – | – | – |
| Cl.NC(N)=N/N=C/c1ccc(-c2ccccc2)cc1 | 34.6 | 125 | 125 | 59.1 | 62.5 | 38 | 21.9 | 6.7 | – | – | Active |
| Cl.NC(N)=N/N=C/c1cccc(Br)c1O | 145 | 500 | 1000 | 80.5 | 250 | 45.6 | 60.3 | 8 | – | – | – |
| Cl.N=C(N)N/N=C/c1ccc(F)cc1 | 87.4 | 1000 | 1000 | 162 | 500 | 69.4 | 77.5 | 14 | – | – | – |
